In US20240327423A1, “A SERIES OF PYRROLE DERIVATIVES AND THEIR PREPARATION METHOD AND THERAPEUTIC USE” (SHENZHEN SUNGENING BIO-MEDICAL CO., LTD, priority 2020, published 2024):
In brackets after ≈: the same amount, converted by molar mass.

System: Aspergillus fumigatus (ATCC MYA-4609/AF293/CBS 101355)
Experiment: Measurement of minimum inhibitory concentration (MIC), AF293
Type: cell-based
Settings: Aspergillus fumigatus AF293, 35° C., 48 hours, RPMI1640; for MIC: CBS101355, read-out: AF293: MIC
Method: New streaks are made with glycerol stock solution of the strains of Aspergillus fumigatus (ATCC MYA-4609/AF 293/CBS 101355) on Sabouraud's dextrose agar (SDA), incubate at 35° C. and a humidity of 40-70% for 72 hours. Other strains are processed as the same as AF293.
RPMI1640: one packet of RPMI1640 powder is dissolved in 1 L purified water and mixed well, add 0.165M MOPS, adjust the pH to 7.0, sterilize by filtration with 0.22 um membrane, and store at 4° C. for no more than 3 months.
Physiological saline: weigh 9 g of sodium chloride powder and dissolve in 1 L of purified water, and mixed well. Sterilize at 121° C. for 30 min, store at room temperature (RT) for no more than 1 week.
Dissolve the test compound and stock solution of one control compound with DMSO and obtain solutions at a concentration of 12.8 mg/mL
The maximum concentration of each compound is 0.8 mg/mL (e.g., 150 μL of dimethyl sulfoxide+10 uL of 12.8 mg/mL compound/control). Column 1 is filled with 40 μL of compound and columns 2 to 11 with 20 μL of dimethyl sulfoxide. Transfer 20 μL of compound from column 1 to column 2 to dilute the concentration. Repeat the above steps up to column 11 to give 2× serial dilutions.
2 μL of the above 2× serial dilutions are injected into each hole of the corresponding test plate using a multichannel pipette.
Drop 5 ml of saline on the Aspergillus fumigatus SDA plate. The spores were carefully wiped off from the surface of the plate with an L-shaped coating rod. Then the suspension is transferred into a sterile tube. After shaking, let the tube stand for 5 to 10 minutes. Count the number of spores in the upper suspension with a hemocytometer and check the purity. Adjust the inoculum concentration to 0.2-2.5×10^4 spores/mL.
Inject 198 μL of diluted inoculum into each holes of the corresponding test plate using a multichannel pipette.
Incubate at 35° C. for 48 hours.
To facilitate scoring of the presence or absence of growth on the wall, a magnifying glass is used. The tested 96-well microplates were photographed and the optical density at 530 nm is read with an enzyme marker (Tecan Spark).

Row | Compound | AF293: MIC [µg/mL] | MIC [µg/mL]
1 | Cc1cc(-c2ccccc2)c(C(=O)C(=O)Nc2ccc3c(c2)CC2CN(c4ncc(F)cn4)CCCN32)n1C (centres unmarked) [2 (T-2-a), 2-(1,5-dimethyl-3-phenyl-1H-pyrrol-2-yl)-N-(2-(5-fluoropyrimidin-2-yl)-2,3,4,5,11,11a-hexahydro-1H-[1,4]diaza[1,2-a]indol-9-yl)-2-oxoacetamide] | 0.06 | 
2 | Cc1cc(-c2ccccc2)c(C(=O)C(=O)Nc2ccc3c(c2)CC2CCN(c4ncc(F)cn4)CCN32)n1C (centres unmarked) [2 (T-2-b), 2-(1,5-dimethyl-3-phenyl-1H-pyrrol-2-yl)-N-(3-(5-fluoropyrimidin-2-yl)-2,3,4,5,11,11a-hexahydro-1H-[1,4]diaza[1,7-a]indol-9-yl)-2-oxoacetamide] | 0.06 | 
3 | Cc1cc(-c2ccccc2)c(C(=O)C(=O)Nc2ccc3c(c2)OCC2CN(c4ncc(C#N)cn4)CCN32)n1C (centres unmarked) [Example 7, N-(3-(5-cyanopyrimidin-2-yl)-1,2,3,4,4a,5-hexahydrobenzo[b]pyrazino[1,2-d] [1,4]oxazin-8-yl)-2-(1,5-dimethyl-3-phenyl-1H-pyrrol-2-yl)-2-oxyacetamide] | 0.06 | 
4 | COc1cnc(N2CCN3c4ccc(NC(=O)C(=O)c5c(-c6ccccc6)cc(C)n5C)cc4OCC3C2)nc1 (centres unmarked) [Example 8] |  | 0.03 (≈ 0.0557 µM)
5 | Cc1cc(-c2ccccc2)c(C(=O)C(=O)Nc2ccc3c(c2)OCC2CN(c4nccc(Cl)n4)CCN32)n1C (centres unmarked) [Example 10] |  | 0.06 (≈ 0.11 µM)
6 | Cc1cc(-c2ccccc2)c(C(=O)C(=O)Nc2ccc3c(c2)OCC2CN(c4ccnc(Cl)n4)CCN32)n1C (centres unmarked) [Example 11] |  | 0.5 (≈ 0.921 µM)
7 | Cc1cc(-c2ccccc2)c(C(=O)C(=O)Nc2ccc3c(c2)OCC2CN(c4ncc(C#N)s4)CCN32)n1C (centres unmarked) [Example 12] |  | 0.13 (≈ 0.241 µM)
8 | Cc1cc(-c2ccccc2)c(C(=O)C(=O)Nc2ccc3c(c2)OCC2CN(c4ccc(F)nn4)CCN32)n1C (centres unmarked) [Example 13] |  | 0.25 (≈ 0.475 µM)
9 | Cc1cc(-c2ccccc2)c(C(=O)C(=O)Nc2ccc3c(c2)OCC2CN(c4ccc(F)cn4)CCN32)n1C (centres unmarked) [Example 14] |  | 0.06 (≈ 0.114 µM)
10 | Cc1cc(-c2ccccc2)c(C(=O)C(=O)Nc2ccc3c(c2)OCC2CN(c4ncn(C)n4)CCN32)n1C (centres unmarked) [Example 17] | 1 | 
11 | Cc1cc(-c2ccccc2)c(C(=O)C(=O)Nc2ccc3c(c2)COCC2CN(c4ncc(F)cn4)CCN32)n1C (centres unmarked) [Example 18, 2-(1,5-dimethyl-3-phenyl-1H-pyrrol-2-yl)-N-(3-(5-fluoropyrimidin-2-yl)-1,2,3,4,4a,5-hexahydro-7H-benzo[e]pyrazino[2,1-c] [1,4]oxazolin-9-yl)-2-oxoacetamide] | 0.03 | 
12 | Cc1cc(-c2ccccc2)c(C(=O)C(=O)Nc2cnc3c(c2)OCC2CN(c4ncc(F)cn4)CCN32)n1C (centres unmarked) [Example 22, 2-(1,5-dimethyl-3-phenyl-1H-pyrrol-2-yl)-N-(8-(5-fluoropyrimidin-2-yl)-6,6a,7,8,9,10-hexahydropyrazino[1,2-d]pyrido[3,2-b] [1,4]oxazin-3-yl)-2-oxoacetamide] |  | 0.13 (≈ 0.246 µM)
13 | Cc1cc(-c2ccccc2)c(C(=O)C(=O)Nc2ccc3c(c2)OC[C@H]2CN(c4ncc(N5CCC5)cn4)CCN32)n1C [Example 23, (R)—N-(3-(5-(azetidin-1-yl)pyrimidin-2-yl)-1,2,3,4,4a,5-hexahydrobenzo[b]pyrazino[1,2-d] [1,4]oxazin-8-yl)-2-(1,5-dimethyl-3-phenyl-1H-pyrrol-2-yl)-2-oxoacetamide] |  | 0.13 (≈ 0.231 µM)
14 | Cc1cc(-c2ccccc2)c(C(=O)C(=O)Nc2ccc3c(c2)OC[C@H]2CN(c4ncc(N5CCOCC5)cn4)CCN32)n1C [Example 24, (R)-2-(1,5-dimethyl-3-phenyl-1H-pyrrol-2-yl)-N-(3-(5-morpholinopyrimidin-2-yl)-1,2,3,4,4a,5-hexahydrobenzo[b]pyrazino[1,2-d] [1,4]oxazin-8-yl)-2-oxoacetamide] |  | 0.13 (≈ 0.219 µM)
